Data from patent EP2386565A2, “Compounds and methods to inhibit or augment an inflammatory response” (Cambridge Enterprise Ltd., priority 1999, dated 2000).
Values belong to the molecule of their own block, whether it stands above or below them. Non-standard residues stand in square brackets, D forms with d. Residues, ends and D or L forms follow the SMILES beside them. No end group written: not given here.

Tests used:
[1] = test system: MCP-1 induced THP-1 migration; test: THP-1 trans-well migration assay, MCP-1 as chemoattractant; type: cell-based, human
Experimental: (§1) To determine whether an agent inhibits a chemokine-induced activity, such as macrophage recruitment, varying amounts of the agent are mixed with cells in the presence of a known chemoattractant. For example, a range of known concentrations of an agent, e.g., a chemokine peptide, is incubated with a defined number (e.g., 10^4 - […]) of human THP-1 monocyte cells in individual wells of the top compartment of a trans-well plate. Chemokine (such as MCP-1, MIP1α, IL8 or SDF-1α), at a concentration known to cause significant migration of THP-1 cells in the trans-well migration assay, is placed in the lower compartment (Figure 1). Cells are then incubated at 37°C for a period sufficient to allow migration, e.g., 4 hours. After incubation, the cells are gently removed from the top of the filter with a pipette, 20 µl of 20 mM EDTA in simple PBS is added into each top well, and incubated for 20 minutes at 4°C. The filter is carefully flushed with media using a gentle flow, and removed. A standard curve consisting of a two-fold dilution series of THP-1 cells (in 29 µl) is prepared to accurately quantify the number of cells that have migrated. Migrated cells are stained with 3 µl of MTT stock dye solution which is added directly into each well (5 mg/ml in RPMI-1640 without phenol red, Sigma Chemical Co.) and incubated at 37°C for 4 hours. The media is carefully aspirated from each well, and the converted dye is solubilized by 20 µl of DMSO. Absorbance of converted dye is measured at a wavelength of 595 nm using an ELISA plate reader. The number of migrated cells in each well is then determined by interpolation of the standard curve (see also Imai et al.,J. Biol. Chem., 272, 15036 (1997)).
Any method suitable for counting cells can be used, for example, counting with a hemocytometer, incubation of the cells with MTT (see above), or FACS analysis. A negative control assay is also performed, using TGF-β or another non-chemokine chemoattractant (e.g., IL1β or TNFα). To assess whether the agent is cytotoxic, the same concentrations of agent are incubated with THP-1 cells. Agents which 1) are not cytotoxic at levels which inhibit migration, 2) are ineffective at inhibiting the negative control-induced migration, and 3) reduce or inhibit chemokine-induced THP-1 migration, are agents which fall within the scope of the invention.
For this assay, THP-1 cells were maintained at a density of 4 × 10^5 cells per ml in RPMI-1640 supplemented with 10% fetal calf serum + 20 µM 2-mercaptoethanol. Chemotaxis was induced in a 96-well disposable chemotaxis chamber fitted with a 5 µM polycarbonate filter (PVP free, ChemoTX, Neuroprobe Inc., Cabin John). […] The framed filter was aligned with the holes in the corner of the filter frame and placed over the wells.
(§2) Five × 10^4 THP-1 cells in 25 µl of RPMI-1640 were added to the upper compartment. Peptides were dissolved in Milli Q water and then serially diluted in culture medium. In most cases, the serially diluted peptides were added to the upper compartment of the chemotaxis chamber. The chamber was incubated at 37°C in a humidified atmosphere of 5% CO2 for 4 hours.
After incubation, the cells were gently removed from the top of the filter with a pipette, 20 µl of 20 mM EDTA in PBS was added into each top well, and the mixture was incubated for 20 minutes at 4°C. The filter was then carefully flushed with media using a gentle flow, and removed. A standard curve was prepared to accurately quantify the number of THP-1 cells that had migrated. The curve was based on a two-fold dilution series of THP-1 cells (top standard 100,000 cells in 29 µl). Cells which had migrated, and in separate wells, the cells in the standards, were stained with 3 µl of MTT stock solution which was added directly into each well (5 mg/ml in RPMI 1640 without phenol red, Sigma Chemical Co.) and incubated at 37°C for 4 hours. The media was carefully aspirated from each well, and the converted dye was solubilized by 20 µl of DMSO. […]

[2] = test system: MIP1α induced THP-1 migration; test: THP-1 trans-well migration assay, MIP1α as chemoattractant; type: cell-based, human; settings: inhibition of THP-1 migration; n.s./ns = not statistically significant
Experimental: as §1
(§3) For this assay, THP-1 cells were maintained at a density of 4 × 10^5 cells per ml in RPMI-1640 supplemented with 10% fetal calf serum + 20 µM 2-mercaptoethanol. Chemotaxis was induced in a 96-well disposable chemotaxis chamber fitted with a 5 µM polycarbonate filter (PVP free, ChemoTX, Neuroprobe Inc., Cabin John). Twenty-nine µl of chemoattractant (recombinant human chemokine; 50 ng/ml, i.e., 5.9 nM) or control (100 ng/ml TGFβ) was added to the lower compartment of each well. The framed filter was aligned with the holes in the corner of the filter frame and placed over the wells.
as §2
(§4) After incubation, the cells were gently removed from the top of the filter with a pipette, 20 µl of 20 mM EDTA in PBS was added into each top well, and the mixture was incubated for 20 minutes at 4°C. The filter was then carefully flushed with media using a gentle flow, and removed. A standard curve was prepared to accurately quantify the number of THP-1 cells that had migrated. The curve was based on a two-fold dilution series of THP-1 cells (top standard 100,000 cells in 29 µl). Cells which had migrated, and in separate wells, the cells in the standards, were stained with 3 µl of MTT stock solution which was added directly into each well (5 mg/ml in RPMI 1640 without phenol red, Sigma Chemical Co.) and incubated at 37°C for 4 hours. The media was carefully aspirated from each well, and the converted dye was solubilized by 20 µl of DMSO. Absorbance of converted dye was measured at a wavelength of 595 nm using an ELISA plate reader. The number of cells that had migrated in each well was determined by interpolation of the standard curve.
(§5) To investigate the receptor specificity of peptide 3 inhibition, the ED50 was determined for peptide 3(1-12)[MCP-1] (SEQ ID NO:1) inhibition of THP-1 migration induced by chemokines which signal through different receptors than MCP-1 receptors. […]

[3] = test system: SDF-1α induced THP-1 migration; test: THP-1 trans-well migration assay, SDF-1α as chemoattractant; type: cell-based, human; settings: inhibition of THP-1 migration; n.s./ns = not statistically significant
Experimental: as §1, §3, §2, §4, §5

gp120 = settings: ns = not significant; >100 = ED50 not determined
Experimental: Binding assays. Cells (either Jurkat T-cells or THP-1 cells) were grown in RPMI 1640 medium supplemented with 10% fetal calf serum, 2 mM glutamine, 20 µM β-mercaptoethanol, 100 U/ml penicillin and 100 µg/ml streptomycin and maintained between 2 × 10^5 and 1 × 10^6 cells/ml. Prior to performing a binding assay, cells were spun out (100 × g; 4 minutes) and washed 3 times in ice-cold PBS. A volume of cell suspension in PBS containing 10^6 cells (for Jurkat cells) or 4 × 10^5 cells (for THP-1 cells) was pipetted into each well of a V-bottom 96-well plate (Gibco BRL) and spun out (100 x g; 4 minutes). Triplicate wells were then resuspended in 100 µl binding medium (PBS pH 7.2 containing 0.1% fatty acid-free bovine serum albumin (BSA)) containing labeled peptide in the presence or absence of various concentrations of unlabeled peptide. The plate was then incubated on ice for 90 minutes. Cells were washed 3 times with 380 µl of ice-cold PBS, spinning out the cells each time (100 × g; 4 minutes), and resuspended in 100 µl binding medium containing streptavidin-peroxidase (Amersham International) at 1:1000 dilution. Cells were incubated for a further 15 minutes on ice to allow labeling of any bound biotinylated peptide, then washed 4 times as above. Cells were then incubated with 200 µl TMB substrate (K-Blue, Bionostics) for 20 minutes at room temperature, and the reaction stopped by addition of 50 µl 2 M HCl. The plate was spun (3,000 × g; 3 minutes) and 200 µl of the colored product was transferred to an empty 96-well ELISA plate and the absorbance at 450 nm determined. For each assay, the absorbance of a blank reaction (no peptide added) was subtracted from all readings before further analysis.
Binding experiments with labeled peptide 2 were performed with 10 nM labeled peptide in each reaction.

[4] = biological target: T1, Duffy Antigen Receptor for Chemokines (DARC) (Homo sapiens, UniProt Q16570); test: DARC binding: competition with 125I-MCP-1 on red blood cells; settings: for DARC binding (µM): ns = not significantly different from control, >100 = not determined
T1 sequence (Q16570 1-336): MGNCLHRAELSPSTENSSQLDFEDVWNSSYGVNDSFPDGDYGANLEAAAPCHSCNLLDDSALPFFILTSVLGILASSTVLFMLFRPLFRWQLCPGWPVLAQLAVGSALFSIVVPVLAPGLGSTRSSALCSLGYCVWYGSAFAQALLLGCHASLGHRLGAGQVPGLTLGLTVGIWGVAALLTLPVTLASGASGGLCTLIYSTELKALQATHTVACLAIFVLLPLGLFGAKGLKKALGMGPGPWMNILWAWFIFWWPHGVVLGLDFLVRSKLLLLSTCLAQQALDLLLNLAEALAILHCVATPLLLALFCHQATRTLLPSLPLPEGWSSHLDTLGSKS

[5] = test system: chemokine-induced THP-1 migration; test: THP-1 trans-well migration assay, several chemokines together (averages, selectivity, pan-chemokine statements); type: cell-based, human; settings: average inhibitory ED50 for THP-1 migration induced by each of the chemokines
Experimental: To determine whether an agent inhibits a chemokine-induced activity, such as macrophage recruitment, varying amounts of the agent are mixed with cells in the presence of a known chemoattractant. […] Chemokine (such as MCP-1, MIP1α, IL8 or SDF-1α), at a concentration known to cause significant migration of THP-1 cells in the trans-well migration assay, is placed in the lower compartment (Figure 1). Cells are then incubated at 37°C for a period sufficient to allow migration, e.g., 4 hours. After incubation, the cells are gently removed from the top of the filter with a pipette, 20 µl of 20 mM EDTA in simple PBS is added into each top well, and incubated for 20 minutes at 4°C. The filter is carefully flushed with media using a gentle flow, and removed. […] The media is carefully aspirated from each well, and the converted dye is solubilized by 20 µl of DMSO.
Chemotaxis was induced in a 96-well disposable chemotaxis chamber fitted with a 5 µM polycarbonate filter (PVP free, ChemoTX, Neuroprobe Inc., Cabin John). […] The framed filter was aligned with the holes in the corner of the filter frame and placed over the wells.
Peptides were dissolved in Milli Q water and then serially diluted in culture medium. In most cases, the serially diluted peptides were added to the upper compartment of the chemotaxis chamber. The chamber was incubated at 37°C in a humidified atmosphere of 5% CO2 for 4 hours.
After incubation, the cells were gently removed from the top of the filter with a pipette, 20 µl of 20 mM EDTA in PBS was added into each top well, and the mixture was incubated for 20 minutes at 4°C. The filter was then carefully flushed with media using a gentle flow, and removed. […] The curve was based on a two-fold dilution series of THP-1 cells (top standard 100,000 cells in 29 µl). […] The media was carefully aspirated from each well, and the converted dye was solubilized by 20 µl of DMSO.
Representative chemokines included […] ("CC"), MIP-1α and RANTES, and two alpha-chemokines ("CXC"), IL-8 and SDF-1α. Additionally, to determine the specificity ofpeptide 3(1-12)[MCP-1]
The number of pluses is a qualitative indicating of the activity of each peptide in each assay.

Molecule: CC[C@@H](C)[C@@H](NC(=O)[C@H](NC(=O)[C@@H](CO)NC(=O)[C@@H](CO)NC(=O)[C@@H](CCCCN)NC(=O)[C@@H](CS)NC(=O)[C@H]1CCCN1C(=O)[C@@H](CCCCN)NC(=O)[C@@H](CCC(=O)O)NC(=O)[C@@H](C)NC(=O)[C@H](N)C(C)C)[C@H](C)O)C(=O)N[C@H](CCCNC(=N)N)C(=O)N[C@H](CCCNC(=N)N)C(=O)N[C@H](Cc1ccc(O)cc1)C(=O)N[C@H](CO)C(=O)O [LRD peptide 2(1-15)[MCP-1], Vaekpcksstirrys] (H-[dV][dA][dE][dK][dP][dC][dK][dS][dS][dT][dI][dR][dR][dY][dS]-OH; N-terminus and C-terminus assumed)
ED50 (µM) versus MCP-1 ([1]; inhibition of THP-1 migration, n.s./ns = not statistically significant): ns
ED50 (µM) versus MIP1α [2]: ns
ED50 (µM) versus SDF-1α [3]: ns
gp120 ED-50 (gp120): 3 µM

Molecule: CLDPKQKWIQC [unlabeled peptide, non-labeled version of the biotinylated peptide]
ED50 for inhibition of MCP-1 induced migration ([1]; MCP-1 at 100 ng/ml in RPMI 1640 + 10% FCS, 4 hours, 5 µm filter): about 9 µM

Molecule: CSKPGV [CSKPGV]
DARC binding (µM) [4]: ns

Molecule: DYFETSSQC
DARC binding (µM) [4]: ns

More lines, main results first:

DARC binding (µM) [4]: ns
Molecule: CC(C)[C@@H](N)C(=O)NCC(=O)N1CCC[C@@H]1C(=O)N[C@H](CCCCN)C(=O)N[C@H](CO)C(=O)N[C@H](CS)C(=O)N[C@H](CCC(N)=O)C(=O)N[C@H](CO)C(=O)N[C@H](CO)C(=O)N[C@@H](C(=O)N[C@H](CCC(=O)O)C(=O)N[C@H](Cc1ccccc1)C(=O)N[C@H](Cc1ccc(O)cc1)C(=O)N[C@H](CC(=O)O)C(=O)O)[C@H](C)O [vgpkscqsstefyd] (H-[dV]G[dP][dK][dS][dC][dQ][dS][dS][dT][dE][dF][dY][dD]-OH)

Duffy selectivity / DARC specificity ratio ([4]; estimated ka for binding to red blood cells divided by average inhibitory ED50): 4.59
Molecule: CQVWKQKPDAC [LRD-Cys13Leu4Ile11pep3[3-12]]
Average ED50 [5]: 1 µM

DARC binding (µM) [4]: ns
Molecule: DYFETSSQCSKPGV [Pep2[MIP1α]]

DARC binding (µM) [4]: ns
Molecule: SYRRI [SYRRI]

DARC binding (µM) [4]: ns
Molecule: TSSKC [TSSKC]
